# Experimental data from patent US8791163B2 (McGill University, priority 2006, dated 2014).
# Where “and” joins values, the source holds several entries; their conditions need not be identical. Identical values can stand only once. Entries after “also recorded” stand apart in the source; their conditions may differ. Like-named read-outs stand apart in the source and are kept apart here.
# How the values were obtained:
# [1] = biological target: T1, cloned human MT2 receptors (Homo sapiens, UniProt P49286); assay: 2-[125I]iodomelatonin competition binding, human MT2 in NIH3T3 cells; conditions: human MT2 in NIH3T3 cells; calculated from IC50 by Cheng-Prusoff; mean of at least three determinations
# T1 construct: expressed in transfected cells
# T1 sequence (P49286 1-362): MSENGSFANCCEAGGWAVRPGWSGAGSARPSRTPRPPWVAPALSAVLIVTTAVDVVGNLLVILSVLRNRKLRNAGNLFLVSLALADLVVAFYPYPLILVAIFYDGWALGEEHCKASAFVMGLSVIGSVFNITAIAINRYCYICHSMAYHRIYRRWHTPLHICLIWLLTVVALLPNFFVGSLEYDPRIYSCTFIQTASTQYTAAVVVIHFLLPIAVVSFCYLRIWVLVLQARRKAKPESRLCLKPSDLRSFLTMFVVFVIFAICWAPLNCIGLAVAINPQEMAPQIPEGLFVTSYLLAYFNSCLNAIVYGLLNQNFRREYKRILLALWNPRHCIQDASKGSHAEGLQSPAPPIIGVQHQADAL
# Protocol: (§1) Membranes were incubated for 90 min at 37° C. in binding buffer (Tris/HCl 50 mM, pH 7.4). The final membrane concentration was 5-10 μg of protein per tube. […] The pKi values are the mean of at least three independent determinations performed in duplicate. To define the functional activity of the compounds of Formula (I) at the MT1 and MT2 receptor subtypes, [^35S]GTPγS binding assays in NIH3T3 cells expressing human-cloned MT1 or MT2 receptors were performed. The amount of bound [^35S]GTPγS is proportional to the level of analogue-induced G-protein activation and is related to the intrinsic activity of the compound (i.e. a compound of Formula (I)) under study. […] Nonspecific binding was assessed using non-radiolabeled GTPγS (10 μM). […] Basal stimulation is the amount of [^35S]GTPγS specifically bound in the absence of the compounds of Formula (I) and was taken as 100%. […] All of the measurements were performed in triplicate.
# [2] = biological target: T2, cloned human MT1 receptors (Homo sapiens, UniProt P48039); assay: 2-[125I]iodomelatonin competition binding, human MT1 in NIH3T3 cells; conditions: calculated from IC50 by Cheng-Prusoff, mean of at least three determinations
# T2 construct: expressed in transfected cells
# T2 sequence (P48039 whole entry): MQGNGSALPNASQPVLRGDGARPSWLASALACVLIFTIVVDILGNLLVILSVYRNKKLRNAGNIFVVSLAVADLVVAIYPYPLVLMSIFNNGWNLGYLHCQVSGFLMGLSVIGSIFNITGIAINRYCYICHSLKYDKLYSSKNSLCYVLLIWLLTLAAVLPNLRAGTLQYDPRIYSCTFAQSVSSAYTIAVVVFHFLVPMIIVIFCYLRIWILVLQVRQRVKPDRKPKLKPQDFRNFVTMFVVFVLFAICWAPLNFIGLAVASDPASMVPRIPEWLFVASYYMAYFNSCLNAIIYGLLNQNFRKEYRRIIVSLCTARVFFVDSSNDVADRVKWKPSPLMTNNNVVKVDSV
# Protocol: as §1
# [3] = biological target: T2, cloned human MT1 receptors; assay: [35S]GTPγS binding assay, NIH3T3 cells expressing human MT1; format: biochemical; conditions: for MT1 IAr ± SEM (relative intrinsic activity): maximal net effect relative to MLT; on MT1 Activity: key: A = agonist; PA = partial agonist; ANT = antagonist; IA = Inverse agonist
# Protocol: as §1
# [4] = biological target: T1, cloned human MT2 receptors; assay: [35S]GTPγS binding assay, NIH3T3 cells expressing human MT2; format: biochemical; conditions: for MT2 IAr ± SEM (relative intrinsic activity): maximal net effect relative to MLT; on MT2 Activity: key: A = agonist; PA = partial agonist; ANT = antagonist; IA = Inverse agonist
# Protocol: as §1
# [5] = tested on: Male rats (Sprague-Dawley); assay: EEG and EMG sleep recordings (slow wave sleep, REM sleep, wakefulness); format: in vivo, rat
# Protocol: Male rats (Sprague-Dawley) weighing approximately 300-340 g were used for surgical implantation of electroencephalogram (EEG) and electromyogram (EMG) electrodes. Following the recovery from surgery, the animals were housed separately in cages and kept on a 12-hour light/dark cycle (12 h light-12 h dark, 7:30 AM lights on) at a controlled temperature (21° C.). The rats had free access to food and water ad libitum.
# Rats were anaesthetized using equithesin (425 mg chloral hydrate, 1 ml 100% ethanol, 98 mg pentobarbitone, 213 mg magnesium sulphate and 3 ml propylene glycol, sterile water per 10 ml of solution; 1 ml per 300 g body weight i.p.) and placed in a stereotactic frame. The skull was exposed and carefully cleaned. Two stainless-steel epidural electrodes were implanted for the registration of the EEG under stereotactic control, through 1.5 mm burr holes at the coordinates corresponding to the right parietal-occipital cortex (AP=−2 mm L=3 mm; AP=−7 mm L=3 mm) and the left parietal-occipital cortex (AP=−4.5 mm L=3 mm) according to the atlas by Paxinos (The Rat Brain in Stereotaxic Coordinates, Academic Press, 1995). Three stainless steel wire electrodes, isolated except for the last few millimeters, were implanted into the neck muscles (two bilaterally and one in the middle) for the monitoring of the EMG. The EEG epidural electrodes and the EMG wires were fitted to a six-pin female connector. For fixation to the skull, the wires and connector were covered with dental acrylic (Coltene/Whaledent Inc. USA). The animals were allowed to recover from the surgery for at least 3-4 days.
# Twenty-four hours (24 h) following the surgery, the rats were placed in the recording room from noon to 9:00 PM, for 3-4 days. The rats were connected to the 6-flat cable (3M), in a freely-moving manner, from 6:00 PM to 9:00 PM for habituation. No recordings were performed at this time, however, the tolerance to the cable and the sleep behavior were observed.
# Following 3-4 days of habituation, the rats received the injection of a vehicle (DMSO/saline 7:3, 0.2 ml s.c.) at 6:00 PM and the recording was carried out until 9:00 PM. On the following day the rats received diazepam (2 mg/kg, s.c.) at 6:00 PM and the recording was performed until 9:00 PM. Four days following the injection of diazepam, the rat received 5b (40 mg/kg s.c.) and the recording also performed from 6 to 9 PM.
# For each experiment, a rat was placed individually in the cage and monitoring of the signal was carried out via the attachment of a non-restraining 6-wire flat cable and a female connector, which was connected to an impedance transformer with a gain of 10, located above the cage. The EEG signal was amplified (resulting in a total gain of 10,000) and locally filtered. The EMG signal was amplified as the EEG, (EEG: low filter 1.0 Hz; high 1 KHz, EMG: low filter 30.0 Hz; high 3 KHz). The power spectra analysis was performed for identification of the sleep stages. The behavior of the animals was observed during the experiment (eye movements, ambulation, rearing etc.).
# The three classical vigilance-sleep states described in the rat were discriminated on the basis of the cortical EEG and neck EMG, following the classification by Ruigt et al. (Electroencephalography and clinical Neurophysiology, 1989, 73: 52-63). Wakefulness was identified by a low-amplitude and desynchronized EEG with sustained EMG activity. Slow wave sleep (SWS, includes Quiet sleep, deep sleep and Pre-REM) was clearly distinguished by high-voltage delta waves (2-4 Hz) and spindles associated with a […] EMG activity. Pre-REM sleep was characterized by a clear theta rhythm in the EEG, frequently alternating with short lasting, high voltage spindles. REM sleep was characterized by a low-amplitude EEG with a pronounced theta rhythm (5.5-8.5 Hz), a complete loss of muscle tone, and a low voltage EMG. […]
# [6] = tested on: Sprague Dawley rats; assay: Novelty-Induced Suppressed Feeding (NSF) Test; format: in vivo, rat; conditions: diazepam 2 mg/kg s.c., 45 min before the test
# Protocol: The NSF test is used to assess the anti-anxiety effect of a drug [Bodnoff et al. Psychopharmacology 1988, 95(3), 298-307]. Sprague Dawley rats were used in the NSF test. The testing apparatus comprises a brightly lit open area covered with lab chow pellets. Forty-eight hours prior to behavioral testing, all food was removed from the apparatus. Animals treated with compound 5b (40 or 80 mg/kg) were injected 60 min before the test, whereas animals treated with vehicle (DMSO/saline 7:3) or diazepam were injected 45 min before the test. The drugs were administered subcutaneously and the experiments were conducted after 5:30 PM. The latency to feed, defined as chewing the food as opposed to merely sniffing or playing with a pellet, was then recorded (Table 6). The experiment was terminated for those animals that had not begun eating within a period of 360 seconds, which animals were assigned a latency score of 360 seconds. All analyses were conducted using Sigma Stats and SPSS software. The results are expressed as the mean±SEM per n (number) animals tested (*, p<0.01, ANOVA or t test).
# [7] = tested on: Adult Sprague Dawley rats; assay: Elevated plus maze (EPM); format: in vivo, rat; conditions: diazepam 2 mg/kg, injected 45 min before test
# Protocol: The maze is comprised of two open arms (50×10 cm) and two closed arms (50×10×40 cm) that extend from a common central platform (10×10 cm). The apparatus, made of wood (painted black) was elevated to a height of 80 cm above floor level. The closed arms are located opposite one another. Behavior is recorded over a period of 5 min using a video camera positioned directly above the maze and rated by an observer blind to drug conditions. The major measure of interest is the amount of time spent in the open arms. As an index of general activity and distribution, the total number of entries into both open and closed arms was also recorded. […] In order to increase the sensitivity of this test to anxiolytic activity, tests are carried out under normal room illumination (25 W bulb).
# [8] = diazepam 2 mg/kg s.c., Mean ± SEM of 11 rats
# [9] = diazepam 2 mg/kg s.c., Mean ± SEM of 11 rats, listed as diazepam
# [10] = diazepam 2 mg/kg s.c., individual rats 1-11
smiles,measurement,setting,value
"COc1cccc(N(C)CCNC(C)=O)c1 [5j, N-{2-[(3-Methoxyphenyl)-methylamino]ethyl}acetamide]",MT2 pKi,[1],9.19 ± 0.01
same,MT1 pKi,[2],9.09 ± 0.10
same,MT1 IAr ± SEM (relative intrinsic activity),[3],0.95 ± 0.08
same,melting point,,69 to 71 °C
same,MT2 IAr ± SEM (relative intrinsic activity),[4],1.06 ± 0.05
"COc1ccc(N(CCNC(C)=O)c2ccccc2)cc1 [5e, N-{-2-[(4-Methoxyphenyl)-phenylamino]ethyl}acetamide]",MT2 pKi,[1],7.56 ± 0.10
same,MT1 pKi,[2],6.11 ± 0.12
same,MT1 Activity,[3],ANT
same,MT1 IAr ± SEM (relative intrinsic activity),[3],0.02 ± 0.01
same,melting point,,102 to 104 °C
same,MT2 Activity,[4],ANT
same,MT2 IAr ± SEM (relative intrinsic activity),[4],0.06 ± 0.03
CN1C(=O)CN=C(c2ccccc2)c2cc(Cl)ccc21 [Diazepam],Slow Wave Sleep Duration,[5],58.45 min and 89.15 min and 84 min and 105.18 min and 99.03 min and 103.14 min and 92.36 min and 114.55 min and 94.85 min and 88.22 min and 83.9 min
same,Slow Wave Sleep Latency,[5],18.02 min and 3.98 min and 8.25 min and 2.86 min and 6.93 min and 3.06 min and 18.42 min and 13.59 min and 22.5 min and 6.51 min and 26.36 min
same,Wakefulness Duration,[5],69.58 min and 73.27 min and 68.04 min and 83.4 min and 62.00 min and 82.58 min and 85.76 min and 66.32 min and 115.52 min and 71.04 min and 80.79 min
same,REM Sleep Duration,[5]; [8],6.5 ± 0.7 min
same,REM Sleep Latency,[5]; [8],74.5 ± 5.2 min
same,REM Sleep Mean of a Single Episode,[5]; [8],1.43 ± 0.11 min
same,REM Sleep Number (episodes),[5]; [8],4.6 ± 0.5 episodes
same,Slow Wave Sleep Duration,[5]; [8],92.0 ± 4.4 min
same,Slow Wave Sleep Mean of a Single Episode,[5]; [8],5.4 ± 0.38 min
same,Slow Wave Sleep Number (episodes),[5]; [8],18.0 ± 1.6 episodes
same,Wakefulness Duration,[5]; [8],78.2 ± 4.43 min
same,Wakefulness Mean of a Single Episode,[5]; [8],2.7 ± 0.84 min
same,Wakefulness Number (episodes),[5]; [8],17.0 ± 1.52 episodes
same,REM Sleep Duration (min),[5]; [9],significantly decreases
same,REM Sleep Latency (min),[5]; [9],significantly increases
same,REM Sleep Number (episodes),[5]; [9],significantly decreases
same,Slow Wave Sleep Duration (min),[5]; [9],increase the duration of the SWS; also recorded: significantly increases
same,Slow Wave Sleep Latency (min),[5]; [9],significantly decreases
same,Slow Wave Sleep Mean of a Single Episode (min),[5]; [9],significantly increase
same,Slow Wave Sleep Number (episodes),[5]; [9],no influence
same,Wakefulness Duration (min),[5]; [9],significantly decreases
same,Wakefulness Number (episodes),[5]; [9],no influence
same,REM Sleep Duration,[5]; [10],6.04 min and 5.45 min and 12.03 min and 5.18 min and 7.71 min and 8.81 min and 4.23 min and 5.86 min and 2.55 min and 8.52 min and 5.62 min
same,REM Sleep Latency,[5]; [10],102.43 min and 56.83 min and 56.59 min and 96.4 min and 61.69 min and 93.4 min and 72.26 min and 86.41 min and 58.92 min and 73.3 min and 61.33 min
same,REM Sleep Mean of a Single Episode,[5]; [10],1.51 min and 1.816 min and 1.718 min and 1.295 min and 1.542 min and 0.978 min and 1.05 min and 1.465 min and 0.85 min and 2.13 min and 1.405 min
same,REM Sleep Number (episodes),[5]; [10],4 episodes (6×) and 3 episodes (2×) and 7 episodes and 5 episodes and 9 episodes
same,Slow Wave Sleep Mean of a Single Episode,[5]; [10],6.49 min and 7.42 min and 3.11 min and 5.53 min and 4.3 min and 5.15 min and 4.39 min and 4.98 min and 6.77 min and 5.18 min and 6.45 min
same,Slow Wave Sleep Number (episodes),[5]; [10],9 episodes and 12 episodes and 27 episodes and 19 episodes and 23 episodes (2×) and 20 episodes and 21 episodes and 14 episodes and 17 episodes and 13 episodes
same,Wakefulness Mean of a Single Episode,[5]; [10],12.83 min and 5.92 min and 4.03 min and 3.66 min and 3.05 min and 4.00 min and 3.79 min and 2.69 min and 5.5 min and 5.71 min and 6.02 min
same,Wakefulness Number (episodes),[5]; [10],9 episodes and 12 episodes and 20 episodes and 19 episodes and 24 episodes and 17 episodes and 22 episodes and 23 episodes and 15 episodes (2×) and 11 episodes
same,Latency (sec) to feed,[6],36.10 ± 15.32 (P ≦ 0.001)* sec
same,Latency (sec) to feed,[6]; listed as diazepam,decreased latency to feed
same,Head Dips,[7],11.37 ± 2.12 (P = 0.01)
same,Percentage of time in Closed Arms,[7],67.75 ± 5.87 (P = 0.007) %
same,Percentage of time in Open Arms,[7],32.25 ± 5.9 (P = 0.006) %
same,Total time duration in the Closed Arms,[7],178.71 ± 18.16 (P = 0.006) sec/closed arm
same,Total time duration in the Open Arms,[7],122.0 ± 18.0 (P = 0.008) sec/open arm
same,Head Dips,[7]; listed as diazepam,increase in the number of head dips
"CCCC(=O)NCCN(c1ccccc1)c1cccc(OC)c1 [5n, N-{2-[(3-Methoxyphenyl)-phenylamino]ethyl}butanamide]",MT2 pKi,[1],9.98 ± 0.26
same,MT1 pKi,[2],8.38 ± 0.01
same,MT1 IAr ± SEM (relative intrinsic activity),[3],1.01 ± 0.04
same,melting point,,50 to 52 °C
same,MT2 IAr ± SEM (relative intrinsic activity),[4],0.73 ± 0.02
